# Results: patent publication US7402606B2, “Derivatives of 1-(oxoaminoacetyl) pentylcarbamate as cathepsin K inhibitors for the treatment of bone loss” (SmithKline Beecham Corporation, priority 2002, dated 2008)
# Target: T1, human cathepsin K (Homo sapiens, UniProt P43235)
# T1 construct: The proform of cathepsin K was converted to mature cathepsin K by brief exposure to pH 4; made in house; host or cells: baculovirus; Trichoplusia ni High Five cells (virus raised in Sf-9)
# T1 sequence (P43235 115-329): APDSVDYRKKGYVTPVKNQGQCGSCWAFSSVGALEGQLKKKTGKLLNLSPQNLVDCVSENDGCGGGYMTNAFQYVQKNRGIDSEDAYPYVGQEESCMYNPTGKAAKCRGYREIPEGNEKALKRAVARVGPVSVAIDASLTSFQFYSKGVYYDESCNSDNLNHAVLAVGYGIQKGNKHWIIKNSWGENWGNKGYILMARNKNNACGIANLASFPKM
# Experiment: Cathepsin K inhibition assay, human recombinant enzyme, fluorogenic substrate Cbz-Phe-Arg-AMC
# Type: biochemical
# Conditions: Table 1, human cathepsin K; read-out: h Cat K IC50
# Description: All assays for cathepsin K were carried out with human and rat recombinant enzyme. Assays for cathepsins S ? V were also carried out with human recombinant enzyme. Assays for human cathepsins B, H, and L were carried out with enzyme, purchased from Athens Research and Technology, Inc., prepared from human liver tissue. […] A stock substrate solution of Cbz-Phe-Arg-AMC was prepared at a concentration of 50 mM in dimethyl sulfoxide. This substrate was diluted into the assay for a final substrate concentration of 10 μM in the rat cathepsin K, human cathepsin K, and human cathepsin B assays; a final substrate concentration of 5 μM in the human cathepsin L assay; and a final substrate concentration of 2 μM in the human cathepsin V assay.
# All assays contained 10% dimethyl sulfoxide. […] All assays were conducted at 30° C. Product fluorescence (excitation at 360 nm; emission at 440 nm, (except cathepsin H which used excitation at 340 nm; emission at 420 nm)) was monitored with a PerSeptive Biosystems Cytofluor II fluorescence plate reader. Product progress curves were generated over 2.3 h monitoring the formation of 7-amino-4-methylcoumarin product (or β-naphthalamide for cathepsin H).
# Human and rat Cathepsin K:
# Two liters of Spodoptera frugiperda (Sf-9) cells (ATCC) were grown in Grace's Supplemented medium (Life Technologies) supplemented with 2 g/L glucose, 10% fetal bovine serum (HyClone) and 0.1% pluronic F-68 (Life Technologies). […] The cells continued to grow for 72 h post-infection, before the virus was harvested by centrifugation at 1400×g for 30 min.
# One and one-half liters of Trichoplusia ni (T. ni) High Five (™) cells [JRH Biosciences, Woodland, Calif. […] The cells were grown for 24 h at 28° C., 50 RPM, and 50% dissolved oxygen. […] Media were separated from cells at a rate of 1 L/min using the Centritech 100 ™ continuous-flow centrifuge (DuPont) operating at 200×g.
# Protein Purification: Media (human and rat) were filtered through a Whatman 3 filter, and then loaded onto a 25 mL. Poros HS II (26 mm×47 mm) cation exchange column equilibrated in 25 mM sodium acetate at pH 5.5 (equilibration buffer). The column was washed until the absorbance reached the baseline value, and then the protein was eluted with a linear gradient from 0-2 M sodium chloride in the equilibration buffer. Column fractions were analyzed by SDS-PAGE, N-terminal sequencing, and mass spectrometry. Fractions containing the proform of cathepsin K were pooled and frozen at −80° C. The proform was concentrated in an Amicon Centriprep 10 and fractionated with a Superdex 75 column (26 mm×600 mm, Pharmacia) equilibrated in 400 mM sodium chloride, 25 mM sodium acetate at pH 5.5.
# Cathepsin K Activation: The proform of cathepsin K was converted to mature cathepsin K by brief exposure to pH 4 in the presence of 5 mM L-cysteine. Typically, 5 mM L-cysteine was added to 10 mL of approximately 1 mg/mL procathepsin K. One mL of this solution was diluted ten-fold into 450 mM sodium acetate at pH 4.0 containing 5 mM L-cysteine. This solution was reacted at 23° C. for 2 min before neutralization with 2 mL, 1.8 M sodium acetate at pH 6.0. The neutralized sample was added to the remaining 9 mL of procathepsin K. The mixture was incubated at 4° C. for 2-3 days. The activated cathepsin K was chromatographed on a Poros HS II column as described above.
# Potential inhibitors were evaluated using the progress curve method. Assays were carried out in the presence of variable concentrations of test compound. Reactions were initiated by addition of buffered solutions of inhibitor and substrate to enzyme. Data analysis was conducted according to one of two procedures depending on the appearance of the progress curves in the presence of inhibitors. […] Ki values were calculated from IC50 values using equation 2 assuming a competitive model.
row,SMILES,IC50 [µM]
1,"CCCC[C@H](NC(=O)O[C@@H]1CN(C(=O)c2ccc3c(c2)OCO3)CC1(C)C)C(=O)C(=O)N[C@H](C)c1ccccc1 [Example 16, (3S)-1-(1,3-Benzodioxol-5-ylcarbonyl)-4,4-dimethylpyrrolidinyl (1S)-1-(oxo{[(1R)-1-phenylethyl]amino}acetyl)pentylcarbamate]",0.001 to 0.01
2,"CCCC[C@H](NC(=O)O[C@@H]1CN(C(=O)O[C@@H]2CCOC2)CC1(C)C)C(=O)C(=O)N[C@H](C)c1ccccc1 [Example 56, (3R)-Tetrahydro-3-furanyl (4S)-3,3-dimethyl-4-[({[(1S)-1-(oxo{[(1R)-1-phenylethyl]amino}acetyl)pentyl]amino}carbonyl)oxy]-1-pyrrolidinecarboxylate]",0.01 to 0.1
3,"CCCC[C@H](NC(=O)O[C@@H]1CN(C(=O)OCc2ccc(-c3ccccc3)cc2)CC1(C)C)C(=O)C(=O)N[C@H](C)c1ccccc1 [Example 40, [1,1′-biphenyl]-4-ylmethyl (4S)-3,3-dimethyl-4-[({[(1S)-1-(oxo{[(1R)-1-phenylethyl]amino}acetyl)pentyl]amino}carbonyl)oxy]-1-pyrrolidinecarboxylate]",0.001 to 0.01
4,"CCCC[C@H](NC(=O)O[C@@H]1CN(C(=O)c2cccnc2)CC1(C)C)C(=O)C(=O)N[C@H](C)c1ccccc1 [Example 66, (3S)-4,4-Dimethyl-1-(3-pyridinylcarbonyl)pyrrolidinyl (1S)-1-(oxo{[(1R)-1-phenylethyl]amino}acetyl)pentylcarbamate]",0.01 to 0.1
5,"CCCC[C@H](NC(=O)O[C@@H]1CN(C(=O)Cc2ccc(F)cc2)CC1(C)C)C(=O)C(=O)N[C@H](C)c1ccccc1 [Example 39, (3S)-1-[(4-Fluorophenyl)acetyl]-4,4-dimethylpyrrolidinyl (1S)-1-(oxo{[(1R)-1-phenylethyl]amino}acetyl)pentylcarbamate]",0.01 to 0.1
6,"CCCC[C@H](NC(=O)O[C@@H]1CN(C(=O)Nc2cc(F)ccc2C)CC1(C)C)C(=O)C(=O)N[C@H](C)c1ccccc1 [Example 72, (3S)-1-[(5-Fluoro-2-methylanilino)carbonyl]-4,4-dimethylpyrrolidinyl (1S)-1-(oxo{[(1R)-1-phenylethyl]amino}acetyl)pentylcarbamate]",0.001 to 0.01
7,CCCC[C@H](NC(=O)O[C@@H]1CN(C(=O)c2ccccc2)CC1(C)C)C(=O)C(=O)N[C@H](C)c1ccccc1 [Example 9],0.01 to 0.1
8,"CCCC[C@H](NC(=O)O[C@@H]1CN(C(=O)N2CCCC2)CC1(C)C)C(=O)C(=O)N[C@H](C)c1ccccc1 [Example 74, (3S)-4,4-Dimethyl-1-(1-pyrrolidinylcarbonyl)pyrrolidinyl (1S)-1-(oxo{[(1R)-1-phenylethyl]amino}acetyl)pentylcarbamate]",0.01 to 0.1
9,"CCCC[C@H](NC(=O)O[C@@H]1CN(S(=O)(=O)c2ccc3c(c2)OCO3)CC1(C)C)C(=O)C(=O)N[C@H](C)c1ccccc1 [Example 79, (3S)-1-(1,3-Benzodioxol-5-ylsulfonyl)-4,4-dimethylpyrrolidinyl (1S)-1-(oxo{[(1R)-1-phenylethyl]amino}acetyl)pentylcarbamate]",0.01 to 0.1
10,"CCCC[C@H](NC(=O)O[C@@H]1CN(C(=O)OCC2CCCO2)CC1(C)C)C(=O)C(=O)N[C@H](C)c1ccccc1 (stereo partly drawn) [Example 41, Tetrahydro-2-furanylmethyl (4S)-3,3-dimethyl-4-[({[(1S)-1-(oxo{[(1R)-1-phenylethyl]amino}acetyl)pentyl]amino}carbonyl)oxy]-1-pyrrolidinecarboxylate]",0.001 to 0.01
11,CCCC[C@H](NC(=O)O[C@@H]1CN(C(=O)NCc2ccccc2)CC1(C)C)C(=O)C(=O)N[C@H](C)c1ccccc1 [Example 64],0.001 to 0.01
12,"CCCC[C@H](NC(=O)O[C@@H]1CN(C(=O)c2n[nH]c3ccccc23)CC1(C)C)C(=O)C(=O)N[C@H](C)c1ccccc1 [Example 36, (3S)-1-(1H-Indazol-3-ylcarbonyl)-4,4-dimethylpyrrolidinyl (1S)-1-(oxo {[(1R)-1-phenylethyl]amino}acetyl)pentylcarbamate]",0.001 to 0.01
13,"CCCC[C@H](NC(=O)O[C@@H]1CN(S(=O)(=O)c2ccccc2)CC1(C)C)C(=O)C(=O)N[C@H](C)c1ccccc1 [Example 77, (3S)-4,4-Dimethyl-1-(phenylsulfonyl)pyrrolidinyl (1S)-1-(oxo{[(1R)-1-phenylethyl]amino}acetyl)pentylcarbamate]",0.001 to 0.01
14,"CCCC[C@H](NC(=O)O[C@@H]1CN(S(=O)(=O)Cc2ccccc2)CC1(C)C)C(=O)C(=O)N[C@H](C)c1ccccc1 [Example 78, (3S)-1-(Benzylsulfonyl)-4,4-dimethylpyrrolidinyl (1S)-1-(oxo{[(1R)-1-phenylethyl]amino}acetyl)pentylcarbamate]",0.01 to 0.1
15,"CCCC[C@H](NC(=O)OC1CN(C(=O)Oc2ccccc2)CC1(C)C)C(=O)C(=O)N[C@H](C)c1ccccc1 (stereo partly drawn) [Example 62, Phenyl 3,3-dimethyl-4-[({[(1S)-1-(oxo{[(1R)-1-phenylethyl]amino}acetyl)pentyl]amino}carbonyl)oxy]-1-pyrrolidinecarboxylate]",0.01 to 0.1
16,"CCCC[C@H](NC(=O)O[C@@H]1CN(C(=O)O[C@H]2CCOC2)CC1(C)C)C(=O)C(=O)N[C@H](C)c1ccccc1 [Example 43, (3S)-Tetrahydro-3-furanyl (4S)-3,3-dimethyl-4-[({[(1S)-1-(oxo{[(1R)-1-phenylethyl]amino}acetyl)pentyl]amino}carbonyl)oxy]-1-pyrrolidinecarboxylate]",0.01 to 0.1
17,"CCCC[C@H](NC(=O)O[C@@H]1CN(C(=O)CCCc2ccccc2)CC1(C)C)C(=O)C(=O)N[C@H](C)c1ccccc1 [Example 24, (3S)-4,4-Dimethyl-1-(4-phenylbutanoyl)pyrrolidinyl (1S)-1-(oxo {[(1R)-1-phenylethyl]amino}acetyl)pentylcarbamate]",0.01 to 0.1
18,"CCCC[C@H](NC(=O)O[C@@H]1C(=O)OCC1(C)C)C(=O)C(=O)N[C@H](C)c1ccccc1 [Example 1, (3S)-4,4-dimethyl-2-oxotetrahydro-3-furanyl (1S)-1-(oxo([(1R)-1-phenylethyl]amino}acetyl)pentylcarbamate]",0.001 to 0.01
19,"CCCC[C@H](NC(=O)O[C@@H]1CN(C(=O)OCc2c(-c3c(Cl)cccc3Cl)noc2C)CC1(C)C)C(=O)C(=O)N[C@H](C)c1ccccc1 [Example 53, [3-(2,6-Dichlorophenyl)-5-methyl-4-isoxazolyl]methyl (4S)-3,3-dimethyl-4-[({[(1S)-1-(oxo{[(1R)-1-phenylethyl]amino}acetyl)pentyl]amino}carbonyl)oxy]-1-pyrrolidinecarboxylate]",0.001 to 0.01
20,"CCCC[C@H](NC(=O)O[C@@H]1CN(C(=O)NC2CCCCC2)CC1(C)C)C(=O)C(=O)N[C@H](C)c1ccccc1 [Example 68, (3S)-1-[(Cyclohexylamino)carbonyl]-4,4-dimethylpyrrolidinyl (1S)-1-(oxo{[(1R)-1-phenylethyl]amino}acetyl)pentylcarbamate]",0.01 to 0.1
21,"CCCC[C@H](NC(=O)O[C@@H]1CN(C(=O)c2cc3ccccc3s2)CC1(C)C)C(=O)C(=O)N[C@H](C)c1ccccc1 [Example 17, (3S)-1-(1-Benzothien-2-ylcarbonyl)-4,4-dimethylpyrrolidinyl (1S)-1-(oxo{[(1R)-1-phenylethyl]amino}acetyl)pentylcarbamate]",0.001 to 0.01
